In the METLIN SMRT retention time set (Domingo-Almenara et al. 2019):

Experiment: gradient 5% acetonitrile 3 min, to 50% in 2 min, to 85% in 15 min, held 3 min, 100 µL/min
Conditions: column: Zorbax Extend-C18 2.1 x 50 mm; eluents: water / acetonitrile, 0.1% formic acid
Outline: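 Values are retention times taken from adduct peaks that software picked and an analyst inspected. The pure standards were run as mixtures of ~100 molecules on HPLC linked to a quadrupole time-of-flight mass spectrometer, in positive and negative ionization mode. A Zorbax Extend-C18 column (2.1 × 50 mm, 1.8 μm) was used at 100 μL/min with water and acetonitrile, each including 0.1% formic acid.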

Row | Compound | RP-LC retention time
1 | COc1ccc(-c2cc3c(=O)n(Cc4nc(-c5ccc(OC)cc5)oc4C)ccn3n2)cc1 | 1070 s
2 | COCCCNC(=O)CN1c2ccccc2NC2=C(C(=O)CC(C)(C)C2)C1c1ccco1 (stereo not drawn) | 725 s
3 | CC(C)CC(=O)N1CCc2c(c(-c3nncn3C(C)C)nn2C)C1 | 682 s
4 | COc1ccc(S(=O)(=O)N2CCC(C(=O)NCCc3csc(-c4cccs4)n3)CC2)cc1 | 863 s
5 | CC(C)c1ccc(NC(=O)C2CCN(S(=O)(=O)c3ccc4[nH]c(=O)sc4c3)CC2)cc1 | 913 s
6 | COc1cccc(NC(=O)C2CCCN2S(=O)(=O)c2cc3c(cc2C)NC(=O)CO3)c1 (stereo not drawn) | 722 s
7 | COC(=O)c1ccc2c(=O)n(-c3ccc(OC)c(OC)c3)c(N3CCCC3)nc2c1 | 751 s
8 | Cn1cc2c3c(cccc31)CN(C(=O)c1ccccc1Br)CC2 | 968 s
9 | CCOC(=O)c1cccc(NC(=O)NC2CCN(c3ccc(F)cc3)C2=O)c1 (stereo not drawn) | 824 s
10 | O=C(Cn1nc2n(c1=O)CCCCC2)Nc1cccc(Br)c1 | 757 s
11 | O=C(NCc1csc(-c2ccccc2)n1)C1CCN(S(=O)(=O)c2cccc3nsnc23)CC1 | 886 s
12 | Cc1ccc(-c2cc(C(=O)O)c3c(-c4ccc(C)cc4)[nH]nc3n2)cc1 | 856 s
13 | COc1ccc(C(O)CN2CCN(C3CCCCC3)CC2)cc1OC (stereo not drawn) | 541 s
14 | CCN(Cc1ccc(Cl)cc1)Cc1cc(=O)n2cccc(C)c2n1 | 648 s
15 | COc1ccc(CNC(=O)Cn2c(C(F)(F)F)nc3cc4c(cc32)OCCO4)cc1 | 813 s
16 | O=C1NCCc2ccc(NC(=O)C3(c4ccc(F)cc4)CC3)cc21 | 706 s
17 | Cc1ccc(Cl)cc1NC(=O)C1CCN(S(=O)(=O)c2cc3c(cc2C)NC(=O)CO3)CC1 | 863 s
18 | O=C(C1CCCN(c2ncc(-c3ccc(F)cc3)cn2)C1)N1CCCC1 (stereo not drawn) | 863 s
19 | CCOc1ccc(-c2noc(Cn3c(=O)n(CC(C)C)c(=O)c4ccccc43)n2)cc1 | 1210 s
20 | COc1cc(CNC(=O)c2c(N3CCCC3=O)c3cc(F)ccc3n2C)cc(OC)c1OC | 791 s
21 | O=C(Nc1ccccc1)c1cn(CC2CCCO2)cc2c(=O)n(-c3ccccc3)nc1-2 (stereo not drawn) | 993 s
22 | O=c1c2nc(-c3ccc(F)cc3)cn2ccn1-c1cccc(Cl)c1 | 867 s

Row | Compound | RP-LC retention time
23 | Cc1cccc(CNC(=O)c2csc(C(=O)NC3CC3)n2)c1 | 824 s
24 | CN(C)c1ccc(C(=O)NC2CCN(c3cc(-c4ccccc4)[nH]n3)C2)cc1 (stereo not drawn) | 705 s
25 | CC(=O)NCC(=O)NCc1nn(CC(C)C)c2ccccc12 | 670 s
26 | Cc1cc(NC(=O)c2csc(-c3ccc(N4CCCC4)nc3)n2)ccc1F | 795 s
27 | COc1cccc(N2CCN(Cc3nc4nc(C)cc(N5CCCC5)n4n3)CC2)c1 | 619 s
28 | O=C(Nc1cc(F)ccc1F)N1CCN(Cc2nc3cccnc3n2-c2ccccc2)CC1 | 676 s
29 | CC(=O)Nc1cccc(N2CC(C(=O)Nc3ccc(Cl)c(C(F)(F)F)c3)CC2=O)c1 (stereo not drawn) | 807 s
30 | CN(CC1CCOC1)C(=O)c1ccccc1Cl (stereo not drawn) | 681 s
31 | Cc1ccc(-c2nc3ncccn3c2Nc2ccccc2C)cc1 | 802 s
32 | CC1CCN(C(=O)Cn2c(CNC(=O)c3ccco3)nc3ccccc32)CC1 | 650 s
33 | CCc1cccc(N2C(=O)CN(S(C)(=O)=O)CC2(C)C(=O)NCc2ccc(C)cc2)c1 (stereo not drawn) | 905 s
34 | CCOc1ccc2sc(NS(=O)(=O)c3ccc(N)cc3)nc2c1 | 797 s
35 | CC(C)CNC(=O)C1CCN(c2cnn(Cc3ccccc3)c(=O)c2)CC1 | 745 s
36 | Cc1cccc(-c2nc(C3CC(=O)N(c4ccc(F)c(Cl)c4)C3)no2)c1 (stereo not drawn) | 1140 s
37 | CCCNC(=O)N1CCC(c2nc(-c3ccncc3)no2)C1 (stereo not drawn) | 604 s
38 | CCC(=O)N1CCCN(C2=NS(=O)(=O)C(c3ccc(CC)cc3)=C2C)CC1 | 796 s
39 | O=C(CCc1csc(NC(=O)c2ccc(F)cc2)n1)Nc1ccc(-n2cnnn2)cc1 | 741 s
40 | CN1CCC(N2CCN(S(=O)(=O)c3ccc(F)cc3)CC2)C1=O (stereo not drawn) | 552 s
41 | CCN(CC)S(=O)(=O)c1ccc2c(c1)N(CC(=O)NCCc1ccco1)C(=O)C1CCCCN21 (stereo not drawn) | 693 s
42 | Cc1oc(C2CCN(C(=O)C3CCCN(S(=O)(=O)N4CCCC4)C3)CC2)nc1C(=O)N1CCCC1 (stereo not drawn) | 737 s
43 | Cc1ccc(N2CC(C(=O)NCc3nn(C)c4ccccc34)CC2=O)cc1 (stereo not drawn) | 782 s
44 | CCc1ccccc1S(=O)(=O)N1CCC(N2CCN(Cc3ccccc3)C(=O)C2=O)CC1 | 864 s

Row | Compound | RP-LC retention time
45 | Cc1nn(CC(=O)NCCN2CCOCC2)c(=O)c2c(-n3cccc3)n(-c3ccc(Cl)cc3)nc12 | 704 s
46 | COc1cccc(-c2noc(C3CCCN3C(=O)Nc3ccc(OC)c(OC)c3)n2)c1 (stereo not drawn) | 855 s
47 | Cc1noc(C)c1-c1ccc(S(=O)(=O)Nc2ccc(C(C)C)cc2)cc1 | 1060 s
48 | Cc1cc(C)nc(N2CCN(C)CC2)n1 | 556 s
49 | CCn1cc(S(=O)(=O)N[C@@H]2CN(Cc3ccccn3)C[C@H]2CN(C)C)cn1 | 524 s
50 | CN(C)c1cnc(-n2cc(NC(=O)c3ccc(C(F)(F)F)cc3)cn2)nc1 | 833 s
51 | O=C(c1cc(S(=O)(=O)N2CCCC(C(=O)N3CCCCC3)C2)c[nH]1)N1CCCC1 (stereo not drawn) | 716 s
52 | Cc1cc(N2CCCCC2)n2nc(CN3CCN(C(C)C)CC3)nc2n1 | 574 s
53 | COC(=O)c1ncn2c1C(=O)N(c1ccc(C)c(C)c1)C(C)(C(=O)NCc1ccccc1)C2 (stereo not drawn) | 735 s
54 | CC(C)(C)NC(=O)N1C[C@@H]2CN(S(=O)(=O)c3cccc(F)c3)C[C@H](C1)O2 | 765 s
55 | CC1CCN(S(=O)(=O)c2cccn(CC#N)c2=O)CC1 | 749 s
56 | CCCc1noc(-c2cccnc2N2CCCN(Cc3cccc(C(F)(F)F)c3)CC2)n1 | 785 s
57 | Cc1cc(N2CCN(C(=O)CCc3ccccc3)CC2)nc2nncn12 | 616 s
58 | O=C(NCCCN1CCOCC1)C1CCc2sc(C(=O)N3CCCCCC3)cc2C1 (stereo not drawn) | 560 s
59 | CCc1noc(-c2cnc3nc(C)ccc3c2NCc2ccccc2C)n1 | 784 s
60 | CSc1ccccc1NC(=O)C(=O)NCC1CCN(Cc2ccco2)CC1 | 579 s
61 | COc1cccc(CNC(=O)CN2C(=O)NC(c3ccccc3Cl)C3=C2COC3=O)c1 (stereo not drawn) | 780 s
62 | Cc1sc(NC(=O)CCc2ccccc2)nc1-c1ccc2c(c1)N(C)C(=O)CO2 | 1010 s
63 | Cc1nn(C)c(C)c1CCNC(=O)Nc1ccc(Br)cc1 | 674 s
64 | COc1ccc(-c2ncc3c(=O)n(CC(=O)Nc4ccc(OC)c(OC)c4)cnc3n2)cc1 | 750 s
65 | CCC(C(=O)NCCCN1CCN(CC)CC1)n1nc(C)c2sc3ccccc3c2c1=O (stereo not drawn) | 624 s
66 | CCCCN1C(=O)C(CC(=O)N2CCCC2)Sc2ncccc21 (stereo not drawn) | 755 s

Row | Compound | RP-LC retention time
67 | COCCNc1c(-c2ccc(C)cc2)nc2sc(C(=O)N(C)C)c(C)n12 | 698 s
68 | CCN(CC)C(=O)c1cc2c(s1)CCC(C(=O)NCc1cccnc1)C2 (stereo not drawn) | 528 s
69 | O=C1CCCc2cc(S(=O)(=O)N3CCC(C(=O)NCc4cccs4)CC3)ccc2N1 | 695 s
70 | Cc1ccc(CNc2c(-c3ccc(F)c(F)c3)nc3ncccn23)cc1 | 890 s
71 | O=C(Nc1nccs1)C1CCN(S(=O)(=O)C2CC2)CC1 | 632 s
72 | CCOC(=O)c1sc2ccccc2c1S(=O)(=O)Nc1ccc2c(c1)OCO2 | 968 s
73 | O=C(C1=CN(c2ccccc2F)c2cc(F)ccc2S1(=O)=O)N1CCCCC1 | 848 s
74 | O=C(Nc1ccc(F)cc1)N1CCC(N2CCN(Cc3ccccc3)C(=O)C2=O)CC1 | 723 s
75 | O=C(NC(Cc1ccccc1)c1nnc(N2CCSCC2)o1)C1CCCC1 (stereo not drawn) | 806 s
76 | Cc1nn2cnnc2c(C)c1CCC(=O)NCCN(C)Cc1ccccc1 | 571 s
77 | COC(=O)c1ccsc1NC(=O)c1ccccc1Cl | 897 s
78 | CCn1c(=O)sc2cc(S(=O)(=O)N3CCC(C(=O)N4CCc5ccccc5C4)CC3)ccc21 | 944 s
79 | Cc1sc(-n2c(C)c3c(C)nnc(C)c3c2C)nc1-c1ccccc1 | 687 s
80 | Fc1cc(F)cc(-c2nnc(Cc3nc(-c4ccccc4Cl)no3)o2)c1 | 1050 s
81 | CCN(CC)S(=O)(=O)c1ccc2c(c1)ncn2CCC(=O)N1CCN(c2ccccn2)CC1 | 602 s
82 | CCOc1ccc(Cc2nc(-c3ccc4oc(CC)nc4c3)no2)cc1 | 1130 s
83 | CC(NC(=O)C(=O)NCC1CCN(C(=O)NC(C)(C)C)CC1)c1ccccc1 (stereo not drawn) | 749 s
84 | CN1CCCn2nc(C3CCN(C(=O)Nc4ccc(F)cc4)CC3)cc2C1=O | 669 s
85 | CCCN1C(=O)c2cc(S(=O)(=O)Nc3ccc(F)c(C)c3)ccc2Oc2cccnc21 | 1100 s
86 | CCCn1c(=O)c(C)nc2cc(-c3noc(-c4ccc(OC)cc4)n3)ccc21 | 1160 s
87 | COc1ccc(OCC(=O)N2CCC(C(=O)NCCc3csc(-c4ccccc4)n3)CC2)cc1 | 818 s
88 | O=C(Nc1cc(F)cc(F)c1)C1CCCN(c2ccnc(-c3ccc(F)cc3)n2)C1 (stereo not drawn) | 761 s
